Data published in patent US11766419B2, “Mebeverine as soluble epoxide hydrolase inhibitor” (Banasthali Vidyapith, priority 2021, dated 2023).
“And” between values parts separate entries of the source, which are not always exact repeats. Equal values may be shown once.

Experiments:
[1] = test system: Lipopolysaccharide (LPS)-induced hyperlipidaemic rats; experiment: LPS-induced hyperlipidemia, serum lipid profile and CRI/AI; assay type: in vivo, rat; details: for AI: Atherogenic index; for CRI: Coronary risk index; for Cholesterol / HDL / LDL / Triglycerides / VLDL: serum
Method: (§1) Wistar albino male rats were divided into different experimental groups—Single dose of 10 mg/kg, i.p. of LPS was administered to all the groups (II-IV). After 3 days of induction mebeverine was orally given twice daily for 5 days to groups (III-IV). After last dose, on day 5, blood samples were collected from all experimental rats for analysis of serum lipid profile parameters and CRI/AI. The results are tabulated below in Table 8 and plotted in FIGS. 11 (a-e) and 12. Biochemical estimations in hepatic tissue samples were also analyzed.

[2] = test system: Triton WR-1339 induced hyperlipidaemic rats; experiment: Triton WR-1339 induced hyperlipidemia, serum lipid profile and CRI/AI; assay type: in vivo, rat; details: for CRI: Coronary risk index; for Cholesterol / HDL / LDL / Triglycerides / VLDL: serum
Method: (§2) Wistar albino male rats were divided into four experimental groups (I, II, III and IV). Groups II-IV were treated with intraperitoneal injection of Triton WR-1339 (200 mg/kg in 2% gum acacia) in 12 h fasted rats to induce hyperlipidemia. Group III and IV were orally administered with Mebeverine twice daily for 3 days at 10 mg/kg and 20 mg/kg. After 48 h, induction of hyperlipidemia blood serum was investigated for total cholesterol and triglycerides. Blood samples were collected from all experimental rats on day 6 (4 days after start of treatment), and, subsequently, serum was separated for analysis of serum lipid profile parameters and CRI/AI. Liver was excised and stored at −80° C. until biochemical parameters in hepatic tissue samples were analysed. The results are tabulated below in Table 6 and plotted in FIGS. 7 (a-e) and 8.

[3] = test system: Triton WR-1339 induced hyperlipidaemic rats; experiment: TBAR and SOD level in hepatic tissue, Triton WR-1339 induced hyperlipidemia; assay type: in vivo, rat
Method: as §2
In addition, the effect on oxidative stress markers on hepatic tissue were also observed. The results are shown in Table 7 and plotted in FIGS. 9 and 10.

[4] = test system: DOCA-induced hypertensive rats; experiment: SOD and TBAR level in heart and aortic tissue, DOCA induced hypertension; assay type: in vivo, rat
Method: Wistar albino male rats were divided into four experimental groups (I, II, III and IV). Groups (II-IV) were administered with DOCA (20 mg/kg in 5% DMSO) intraperitoneally and drinking water was replaced by 2% NaCl. […] At the end of this experimental period SAP, DAP and MAP were measured. The results are tabulated below in Tables 4A, 4B and 4C, respectively, and are plotted in FIGS. 4a, 4b and 4c. Additionally, the levels of oxidative stress biomarkers, superoxide dismutase (SOD) and thiobarbituric acid (TBARs)s in heart and aortic tissue were also measured (Cayman commercial kit). The results are tabulated in Table 5 and plotted in FIGS. 5a and 5b (TBAR level) and 6a and 6b (SOD level).

[5] = test system: angiotensin-II induced hypertensive rats; experiment: Angiotensin II induced hypertension, blood pressure; assay type: in vivo, rat
Method: Wistar albino male rats were divided into four experimental groups (I, II, III and IV). Groups II-IV were infused with Angiotensin II at a continuous rate via subcutaneously implanted osmotic mini pump for 7 days. After induction of high blood pressure, (>140/90 mm of Hg), Groups III and IV were administered with mebeverine twice daily for five consecutive days at 10 mg/kg and 20 mg/kg doses respectively. At the end of this experimental period SAP, DAP and MAP were measured. The results are tabulated below in Tables 3A, 3B, and 3C, respectively, and are plotted in FIGS. 3a, 3b and 3c.

[6] = test system: Lipopolysaccharide (LPS)-induced hyperlipidemic rats; experiment: TBAR and SOD level in hepatic tissue, LPS-induced hyperlipidemia; assay type: in vivo, rat
Method: as §1, with “The results are tabulated below in Table 8 and plotted in FIGS. 11 (a-e) and 12.” left out

[7] = test system: isolated rat aortic strip; experiment: Ex-vivo relaxation of KCl pre-constricted isolated rat aortic strip; details: aortic rings constricted with 80 mmol KCl
Method: Aortic rings were suspended in organ baths containing a modified Krebs buffer and bubbled with a mixture of 95% O2/5% CO2. Rings were connected to an isometric force transducer, resting tension was set to 5 g and constricted with 80 mmol KCl. The relaxation of these pre-constricted aortic trips at different concentrations of mebeverine (10^−9-10^−[…]) are tabulated in Table 2 and plotted in FIG. 2.

[8] = test system: DOCA-induced hypertensive rats; experiment: DOCA induced hypertension, blood pressure; assay type: in vivo, rat
Method: Wistar albino male rats were divided into four experimental groups (I, II, III and IV). Groups (II-IV) were administered with DOCA (20 mg/kg in 5% DMSO) intraperitoneally and drinking water was replaced by 2% NaCl. After induction of high blood pressure, Groups III and IV were treated with 10 mg/kg and 20 mg/kg mebeverine orally, respectively. At the end of this experimental period SAP, DAP and MAP were measured. The results are tabulated below in Tables 4A, 4B and 4C, respectively, and are plotted in FIGS. 4a, 4b and 4c.

sEH = molecular target: T1, sEH (Homo sapiens, UniProt P34913); experiment: In vitro sEH activity assay (PHOME substrate, fluorescence); assay type: biochemical; design: sEH inhibitory activity (in words): dose or concentration left out as unconfirmed; details: for IC50: sEH, PHOME substrate
T1 sequence (P34913 1-555): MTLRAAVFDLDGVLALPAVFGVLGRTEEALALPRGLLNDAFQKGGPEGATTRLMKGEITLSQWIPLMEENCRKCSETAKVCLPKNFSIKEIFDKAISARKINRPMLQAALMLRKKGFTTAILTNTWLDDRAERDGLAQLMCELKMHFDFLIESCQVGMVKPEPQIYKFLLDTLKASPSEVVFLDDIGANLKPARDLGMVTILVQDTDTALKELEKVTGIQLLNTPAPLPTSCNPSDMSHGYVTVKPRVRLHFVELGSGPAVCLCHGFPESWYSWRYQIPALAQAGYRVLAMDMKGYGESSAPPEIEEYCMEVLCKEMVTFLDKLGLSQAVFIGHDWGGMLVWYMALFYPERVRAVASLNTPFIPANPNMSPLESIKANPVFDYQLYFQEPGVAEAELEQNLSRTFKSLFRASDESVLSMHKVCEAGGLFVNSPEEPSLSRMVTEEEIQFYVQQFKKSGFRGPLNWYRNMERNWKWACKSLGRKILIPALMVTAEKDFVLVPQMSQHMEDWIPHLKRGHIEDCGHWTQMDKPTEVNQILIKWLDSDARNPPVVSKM
Method: Hydrolysis of PHOME by sEH results in the release of cyanohydrins that further decomposes to cyanide ion and 6-methoxy-2-naphthaldehyde (highly fluorescent). The fluorescence was analyzed at an excitation and emission wavelength of 330 nm and 465 nm respectively.

[9] = 10 mg/kg orally twice daily for 5 days
[10] = 20 mg/kg orally twice daily for 5 days
[11] = 10 mg/kg orally twice daily for 3 days
[12] = 20 mg/kg orally twice daily for 3 days

## CCN(CCCCOC(=O)c1ccc(OC)c(OC)c1)C(C)Cc1ccc(OC)cc1 (centres unmarked) [Mebeverine]
[1]; [9]
  AI: 2.14 ± 0.02
  CRI: 3.14 ± 0.14
  Cholesterol: 132.5 ± 4.24 mg/dL
  HDL: 42.0 ± 1.41 mg/dL
  LDL: 58.3 ± 3.25 mg/dL
  Triglycerides: 158.5 ± 3.58 mg/dL
  VLDL: 31.6 ± 0.34 mg/dL
[1]; [10]
  AI: 1.01 ± 0.17
  CRI: 2.01 ± 0.17
  Cholesterol: 103.50 ± 1.41 mg/dL
  HDL: 51.00 ± 3.53 mg/dL
  LDL: 30.0 ± 3.25 mg/dL
  Triglycerides: 110.00 ± 2.82 mg/dL
  VLDL: 22.0 ± 0.56 mg/dL
[2]; 10 mg/kg
  HDL (in words): increases HDL
  triglycerides, cholesterol, LDL and VLDL and CRI/AI (in words): markedly decreases
[2]; [11]
  AT: 2.32 ± 0.02
  CRI: 3.32 ± 0.02
  Cholesterol: 108.00 ± 8.48 mg/dL
  HDL: 32.50 ± 2.12 mg/dL
  LDL: 55.90 ± 9.75 mg/dL
  Triglycerides: 98.00 ± 9.8 mg/dL
  VLDL: 19.60 ± 3.25 mg/dL
[2]; [12]
  AT: 0.79 ± 0.19
  CRI: 1.79 ± 0.02
  Cholesterol: 95.00 ± 4.94 mg/dL
  HDL: 53.00 ± 1.59 mg/dL
  LDL: 26.90 ± 1.83 mg/dL
  Triglycerides: 77.00 ± 9.19 mg/dL
  VLDL: 15.40 ± 1.83 mg/dL
[3]; 10 mg/kg
  SOD: 65.13 ± 0.22 U/g protein
  TBAR: 0.78 ± 0.01 nmol/mg protein
[3]; 20 mg/kg
  SOD: 87.27 ± 0.30 U/g protein
  TBAR: 0.70 ± 0.01 nmol/mg protein
[4]; Aortic tissue, 10 mg/kg
  SOD Level: 70.20 ± 0.28 U/g tissue
  TBAR level: 0.87 ± 0.02 nmol/mg protein
[4]; Aortic tissue, 20 mg/kg
  SOD Level: 90.21 ± 0.21 U/g tissue
  TBAR level: 0.71 ± 0.03 nmol/mg protein
[4]; Heart tissue, 10 mg/kg
  SOD Level: 73.04 ± 0.29 U/g tissue
  TBAR level: 0.88 ± 0.03 nmol/mg protein
[4]; Heart tissue, 20 mg/kg
  SOD Level: 86.24 ± 0.37 U/g tissue
  TBAR level: 0.68 ± 0.01 nmol/mg protein
[4]; aortic and heart tissue
  SOD activity (in words): significant dose dependent increase
  TBARs concentration (in words): significant dose dependent decrease
[5]; 10 mg/kg twice daily, D 0
  DAP: 189 ± 13.43 mm Hg
  MAP: 200 ± 8.40 mm Hg
  SAP: 213 ± 6.360 mm Hg
[5]; 10 mg/kg twice daily, D 3
  DAP: 168 ± 6.86 mm Hg
  MAP: 182 ± 12.02 mm Hg
  SAP: 208 ± 6.970 mm Hg
[5]; 10 mg/kg twice daily, D 4
  DAP: 95 ± 11.70 mm Hg
  MAP: 110 ± 16.78 mm Hg
  SAP: 146 ± 5.370 mm Hg
[5]; 10 mg/kg twice daily, D 5
  DAP: 92 ± 4.24 mm Hg
  MAP: 108 ± 1.07 mm Hg
  SAP: 140 ± 2.120 mm Hg
[5]; 20 mg/kg twice daily, D 0
  DAP: 152 ± 1.40 mm Hg
  MAP: 170 ± 4.30 mm Hg
  SAP: 193 ± 3.530 mm Hg
[5]; 20 mg/kg twice daily, D 3
  DAP: 109 ± 28.80 mm Hg
  MAP: 128 ± 7.07 mm Hg
  SAP: 147 ± 5.600 mm Hg
[5]; 20 mg/kg twice daily, D 4
  DAP: 86 ± 1.70 mm Hg
  MAP: 98 ± 1.51 mm Hg
  SAP: 123 ± 7.28 mm Hg
[5]; 20 mg/kg twice daily, D 5
  DAP: 82 ± 3.53 mm Hg
  MAP: 92 ± 2.82 mm Hg
  SAP: 119 ± 7.07 mm Hg
[5]; both 10 mg/kg and 20 mg/kg, P<0.001
  Effect on high blood pressure (in words): reduces the high blood pressure
[6]; 10 mg/kg
  SOD: 67.13 ± 0.21 U/g protein
  TBAR: 1.10 ± 0.01 nmol/mg protein
[6]; 20 mg/kg
  SOD: 74.50 ± 0.15 U/g protein
  TBAR: 0.701 ± 0.02 nmol/mg protein
[7]; Mebeverine conc 10^−4 nM (maximal relaxant effect)
  % relaxation: 79.3±0.01% and 79.3%
[7]; Mebeverine conc 10^−5 nM
  % relaxation: 71.1%
[7]; Mebeverine conc 10^−6 nM
  % relaxation: 64.9%
[7]; Mebeverine conc 10^−7 nM
  % relaxation: 52.2%
[7]; Mebeverine conc 10^−8 nM
  % relaxation: 23.9%
[7]; Mebeverine conc 10^−9 nM
  % relaxation: 14.5%
[8]; 10 mg/kg orally, D 0
  DAP: 168 ± 10.60 mm Hg
  MAP: 179 ± 7.63 mm Hg
  SAP: 213 ± 2.82 mm Hg
[8]; 10 mg/kg orally, D 3
  DAP: 156 ± 9.89 mm Hg
  MAP: 170 ± 0.52 mm Hg
  SAP: 187 ± 8.48 mm Hg
[8]; 10 mg/kg orally, D 4
  DAP: 101 ± 1.52 mm Hg
  MAP: 114 ± 6.08 mm Hg
  SAP: 140 ± 8.00 mm Hg
[8]; 10 mg/kg orally, D 5
  DAP: 84 ± 1.06 mm Hg
  MAP: 99 ± 0.77 mm Hg
  SAP: 108 ± 1.41 mm Hg
[8]; 20 mg/kg orally, D 0
  DAP: 185 ± 3.50 mm Hg
  MAP: 199 ± 6.54 mm Hg
  SAP: 226 ± 4.94 mm Hg
[8]; 20 mg/kg orally, D 3
  DAP: 128 ± 7.07 mm Hg
  MAP: 140 ± 1.71 mm Hg
  SAP: 166 ± 6.36 mm Hg
[8]; 20 mg/kg orally, D 4
  DAP: 83 ± 5.13 mm Hg
  MAP: 96 ± 7.57 mm Hg
  SAP: 114 ± 10.01 mm Hg
[8]; 20 mg/kg orally, D 5
  DAP: 72 ± 0.70 mm Hg
  MAP: 86 ± 0.63 mm Hg
  SAP: 98 ± 1.09 mm Hg
sEH; dose-dependent
  sEH inhibitory activity (in words): potent inhibitor of sEH enzyme
sEH
  IC50: 3.9 nM

## C[C@H](CS)C(=O)N1CCC[C@H]1C(=O)O [Captopril, captopril]
sEH; remaining enzyme activity
  sEH activity: 100%
sEH
  IC50: 693 nM
